In patent US7666642B2, “Nematode fatty acid desaturase-like sequences” (Divergence, Inc., priority 2001, dated 2010):
Like-named read-outs stand apart in the source and are kept apart here.

What was measured:
[1] = tested on: isolated intestinal epithelial cells; settings: cited from earlier work
[2] = tested on: everted hamster jejunal and ileal segments; settings: cited from earlier work
[3] = tested on: Δ9 fatty acid desaturases; settings: cited from earlier work
[4] = tested on: plants; settings: in vivo
[5] = tested on: C. elegans; test: Inhibitor studies: C. elegans cultures on NGM plates containing fatty acid methyl esters; assay type: in vivo; settings: for Lifecycle impairments of C. elegans cultures: methyl ester on NGM plates with OP50 E. coli
From the text: Vernolic acid and ricinoleic acid are naturally occurring plant-produced fatty acid homologs that we predict to be specific inhibitors of Δ12 FAT enzymes. The addition of these compounds to living cultures of C. elegans is expected to mimic the effects of the Δ12 FAT RNAi experiments since, in each case, the phenotype observed should derive from the inhibition of the nematode Δ12 FAT. To explore this possibility, C. elegans cultures were started from eggs on NGM plates containing their E. coli food source and one of either 3 mM ricinolcic acid methyl ester or 3 mM vernolic acid methyl ester. Total eggs layed and hatch-rates of F1 and F2 individuals were followed and compared to nematode cultures grown in the presence of control fatty acids oleic acid methyl ester and linoleic acid methyl ester. C. elegans L4 larvae were added to NGM plates containing OP50 E. coli and one of the following methyl esters: oleic acid, linolcic acid, ricinoleic acid, vernolic acid or none. C. elegans L4 larvae growing on plates containing ricinoleic acid (FIG. 11) or vernolic acid (FIG. 12) methyl esters developed to mature adults more slowly than those on control plates containing oleic acid (FIG. 9) or linoleic acid (FIG. 10) and produced very few embryos (eggs).

[6] = tested on: C. elegans; test: Rescue of C. elegans Δ12 FAT RNAi feeding phenotype by fatty acid methyl esters; assay type: in vivo; settings: 3 mM added to the NGM media
From the text: RNAi by feeding: C. elegans can be grown on lawns of E. coli genetically engineered to produce double stranded RNA (dsRNA) designed to inhibit Δ12 FAT expression. Briefly, E. coli were transformed with a genomic fragment of a portion of the C. elegans Δ12 FAT gene sequence, specifically a fragment 651 nucleotides long, containing the entire first exon and terminating just before the conserved intron splice junction between the first exon and first intron. This construct encodes approximately the first 217 amino acids of the C. clegans Δ12 FAT gene. The 651 nucleotide genomic fragment was cloned into an E. coli expression vector between opposing T7 polymerase promoters. The clone was then transformed into a strain of E. coli that carries an IPTG-inducible T7 polymerase. As a control, E. coli was transformed with a gene encoding the Green Fluorescent Protein (GFP).
Feeding RNAi was initiated from C. elegans eggs or from C. elegans L4s.
The C. elegans Δ12 fatty acid desaturase (Fat2 protein) converts the mono-unsaturated oleic acid to the di-unsaturated fatty acid linoleic acid. The […] FAT RNAi prevents expression of the Δ12 fatty acid desaturase, which is predicted to cause a decrease in levels of linoleic acid in the nematode, leading to arrested development and death.

[7] = tested on: plants; test: Toxicity to plants (phytotoxicity); settings: at least some plants
[8] = 3 mM methyl ester on NGM plates with OP50 E. coli

CCCCCC[C@@H](O)C/C=C\CCCCCCCC(=O)O [Ricinoleic acid, reference compound]
Cytotoxicity [1]: cytotoxic | Effect on water and electrolyte absorption [2]: inhibitory effect

CCCCCCCCC1=C(CCCCCCCC(=O)O)C1 [Sterculic acid]
Inhibition of Δ9 fatty acid desaturases [3]: potent inhibitor

CCCCCC#CC/C=C\CCCCCCCC(=O)OC [crepenynic acid methyl ester]
Toxicity to plants [4]: do not appear to be toxic (or are very much less toxic)

CCCCC/C=C\C/C=C\CCCCCCCC(=O)OC [linoleic acid methyl ester, reference compound]
Lifecycle impairments of C. elegans cultures [5]: no dramatic lifecycle impairments | Rescue of the Δ12 FAT RNAi feeding phenotype [6]: partial rescue

CCCCCCCCC1=C(CCCCCCC(=O)O)C1 [malvalate]
Inhibition of Δ9 fatty acid desaturases [3]: equally inhibitory

CCCCCCCC/C=C\CCCCCCCC(=O)OC [oleic acid methyl ester, reference compound]
Lifecycle impairments of C. elegans cultures [5]: no dramatic lifecycle impairments | Rescue of the Δ12 FAT RNAi feeding phenotype [6]: does not rescue

CCCCCC[C@@H](O)C/C=C/CCCCCCCC(=O)OC [ricinelaidic acid methyl ester]
Toxicity to plants [7]: do not appear to be toxic (or are very much less toxic)

CCCCCC[C@@H](O)C/C=C\CCCCCCCC(=O)OC [ricinoleic acid methyl ester]
Embryos (eggs) produced [5, 8]: very few | Phenotype of young larvae from embryos that hatched [5, 8]: severe arrested phenotypes and did not develop to adults | Development of L4 larvae to mature adults ([5]; 3 mM methyl ester on NGM plates with OP50 E. coli, compared with oleic or linoleic acid control plates): more slowly | Nematicidal activity ([5]; methyl esters of fatty acid analogs): nematicidal | Toxicity to plants [7]: do not appear to be toxic (or are very much less toxic) | Effect on water and electrolyte absorption [2]: ineffective
